This note sets out measurements from publication PMC9005804, “GPR105-Targeted Therapy Promotes Gout Resolution as a Switch Between NETosis and Apoptosis of Neutrophils” (Frontiers in Immunology, 2022).

SMILES strings stand for the structures.

The test concerns the target T1, GPR105 (Homo sapiens, UniProt Q15391).
T1 construct: gene P2RY14
T1 sequence (Q15391 1-338): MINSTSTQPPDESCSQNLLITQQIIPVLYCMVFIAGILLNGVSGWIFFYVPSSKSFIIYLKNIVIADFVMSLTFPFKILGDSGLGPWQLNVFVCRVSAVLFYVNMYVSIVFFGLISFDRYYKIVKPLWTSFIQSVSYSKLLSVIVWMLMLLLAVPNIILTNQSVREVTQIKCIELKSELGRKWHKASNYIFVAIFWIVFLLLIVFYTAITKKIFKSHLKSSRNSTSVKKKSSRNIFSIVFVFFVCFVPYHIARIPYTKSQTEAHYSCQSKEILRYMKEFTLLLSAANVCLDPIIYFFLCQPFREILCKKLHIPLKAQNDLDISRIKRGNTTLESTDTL
The test is described as follows: cAMP-Glo luminescence assay in HEK293-hGPR105 cells (forskolin plus UDPG stimulated), antagonism. Format: cell-based.

By IC50 is commonly meant the midpoint of a concentration-inhibition curve. Turning to `C/C=C/C#CC#C[C@@H](O)[C@@H](/C=C/CCCO)O[C@@H]1O[C@H](CO)[C@@H](O)[C@H](O)[C@H]1O` [LBT, lobetyolin], the IC50 turned out to be 5.1 µM.
